Measurements reported in US20250034194A1, “INHIBITORS OF ABNORMAL PHOSPHORYLATION AND TAU PROTEIN AGGREGATION” (UNIVERSITE DE PICARDIE JULES VERNE, priority 2021, published 2025).

Key:
[1] = target: T1, tau protein (4R2N isoform, 441 amino acids) (Homo sapiens, UniProt P10636); assay: Induction of tau protein aggregation, Thioflavin T incorporation; format: biochemical; conditions: tau 0.71 mg/mL, compound 0.175 mg/mL (mass ratio 4/1); up to 72 h
T1 construct: purchased Tebu-bio (custom synthesized)
T1 sequence (P10636 1-441 isoform P10636-8): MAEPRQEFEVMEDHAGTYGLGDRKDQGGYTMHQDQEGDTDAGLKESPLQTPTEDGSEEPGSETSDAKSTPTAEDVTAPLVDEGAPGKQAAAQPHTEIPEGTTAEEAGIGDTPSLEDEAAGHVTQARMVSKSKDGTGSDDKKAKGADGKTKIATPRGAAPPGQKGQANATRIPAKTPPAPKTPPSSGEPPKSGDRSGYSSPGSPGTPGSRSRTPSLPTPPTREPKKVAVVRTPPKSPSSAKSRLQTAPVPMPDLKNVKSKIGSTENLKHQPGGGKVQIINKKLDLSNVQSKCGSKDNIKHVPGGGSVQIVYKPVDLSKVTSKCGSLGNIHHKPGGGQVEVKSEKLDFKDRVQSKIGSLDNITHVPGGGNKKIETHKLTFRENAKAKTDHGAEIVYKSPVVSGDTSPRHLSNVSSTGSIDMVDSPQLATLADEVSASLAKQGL
Method: The ability of the 16-carbon disulphated maltobionamide compound “Mal16diS” to induce tau protein aggregation, another step in the occurrence of neurofibrillary tangles, was evaluated. Thus, the ability of this molecule to induce or inhibit the aggregation of tau in vitro (FIG. 10) was evaluated in a test described in the article by Sui et al, 2015 in which tau aggregation is monitored by the incorporation of Thioflavin T (ThT). […]
100 μL of ThT (Sigma-Aldrich) at 50 μM is immediately added to each well, then the plate is incubated at 37° C. with stirring. Monitoring the formation of tau protein aggregates is possible by monitoring the incorporation of thioflavin leading to its fluorescence emission and is carried out by reading at 0, 24, 40, 48 and 71 h at Exc wavelength 450 nm/Em wavelength 510 nm, by means of an Infinite M1000 spectrofluorometer (Tecan).

[2] = system: tau phosphorylation (S262 site) in SH-SY5Y cells; assay: In cellulo tau phosphorylation test in the SH-SY5Y line (H2O2 stress induction); format: cell-based; conditions: 24 hours, then H2O2
Method: The tau phosphorylation induction model on the SH-SY5Y cell line described in the Gly-CRRET laboratory article was used here (Sepulveda-Diaz et al., 2015).
In short, SH-SY5Y cells are seeded in 6-well plates and differentiated using retinoic acid (10 μM, Sigma Aldrich) for 5 days. On day 6, the cells are placed in the presence of the Mal16diS and Mal18diS molecules at different concentrations (1, 10 or 100 μg/mL), in a final volume of 2 mL simultaneously with a well not receiving molecules. After 24 hours, the molecules are removed and the stress inducer (H2O2, Sigma Aldrich) is added to the cell medium for 30 minutes. The cells are then rinsed with 1×PBS then lysed and recovered in RIPA buffer (Thermo Fisher). The protein extracts from the cells (10 μg) are then analysed by western blot according to the same procedure described above.
The tau phosphorylation site studied here is the S262 site (Thermo Fisher), normalized to the expression of the GAPDH protein (Sigma Aldrich). The bands are quantified using the Odyssey software of the LI-COR device allowing the p-tau/GAPDH ratio to be calculated for each of the conditions. The ratio obtained for each concentration of molecule is then expressed as a percentage of the ratio obtained for the control cells, i.e., not treated by the molecules. Thus a value less than 100% corresponds to protection provided by the molecules in this cellular model of tau phosphorylation induction.
The experiment was repeated at least 4 times for each molecule dose for the “Mal16diS” and “Mal18diS” molecules and at least twice for the “Cell16diS” and “Lac16diS” molecules. The mean and standard deviation of the replicates are shown in FIGS. 13 to 16; each of the values obtained for each dose is compared to that of the control without addition of molecule by means of a t-test. Statistical differences with p-value <0.05 and <0.001 are represented by “*” and “***” respectively.

## CCCCCCCCCCCCCCCCNC(=O)[C@H](O)[C@@H](O)[C@H](O[C@H]1OC(COS(=O)(=O)[O-])[C@@H](O)C(O)[C@@H]1O)[C@H](O)COS(=O)(=O)[O-].[Na+].[Na+] (stereo partly drawn) [Mal16diS, N-Hexadecyl-6,6′-Di-O-Sulfo-D-Maltobioamide Disodium]
[1]
  induction of tau protein aggregation (Thioflavin-T): induces the aggregation of tau protein more weakly compared to heparin
[2]; 1 μg/mL
  reduction in tau phosphorylation (S262, p-tau/GAPDH) compared to untreated cells: 30%
[2]; 10 μg/mL
  reduction in tau phosphorylation (S262, p-tau/GAPDH) compared to untreated cells: 40%
